Test [1] has as its target T1, SMARCA2-HiBiT (Homo sapiens, UniProt P51531).
T1 construct: SMARCA2-HiBiT knock-in Hela monoclonal cell (CS302366); host or cells: HeLa monoclonal knock-in line (CRISPR HiBiT knock-in at the endogenous locus, heterozygous)
Kind of test: SMARCA2 HiBiT degradation assay in HeLa cells. The format is cell-based. The note with it: 18 hours incubation; for DC50: read-out: HeLa_HiBit-SM2 DC50; for Dmax: HeLa, read-out: HeLa-HiBit-SM2 Dmax (%). Summed up: (§1)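 HeLa monoclonal lines with heterozygous HiBiT knock-in were seeded at 2500 cells/well in EMEM with 10% FBS and treated with compound for 18 h at 37 °C. Remaining tagged protein was measured by Nano-Glo HiBiT lytic luminescence after 30–60 min at RT, and values came from curve fitting.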

The target in test [2] is T2, SMARCA4-HiBiT (Homo sapiens, UniProt P51532).
T2 construct: SMARCA4-HiBiT knock-in Hela monoclonal cell (CS3023226); host or cells: HeLa monoclonal knock-in line (CRISPR HiBiT knock-in at the endogenous locus, heterozygous)
Kind of test: SMARCA4 HiBiT degradation assay in HeLa cells. The format is cell-based. The conditions noted are these: 18 hours incubation; for DC50: read-out: HeLa-HiBit-SM4 DC50; for Dmax: HeLa, read-out: HeLa-HiBit-SM4 Dmax (%). A digest of the protocol: as §1
(With HiBiT, luminescence reflects the tagged protein that the partner subunit can reach.)

SMILES strings stand for the structures.

T2 sequence (P51532 whole entry): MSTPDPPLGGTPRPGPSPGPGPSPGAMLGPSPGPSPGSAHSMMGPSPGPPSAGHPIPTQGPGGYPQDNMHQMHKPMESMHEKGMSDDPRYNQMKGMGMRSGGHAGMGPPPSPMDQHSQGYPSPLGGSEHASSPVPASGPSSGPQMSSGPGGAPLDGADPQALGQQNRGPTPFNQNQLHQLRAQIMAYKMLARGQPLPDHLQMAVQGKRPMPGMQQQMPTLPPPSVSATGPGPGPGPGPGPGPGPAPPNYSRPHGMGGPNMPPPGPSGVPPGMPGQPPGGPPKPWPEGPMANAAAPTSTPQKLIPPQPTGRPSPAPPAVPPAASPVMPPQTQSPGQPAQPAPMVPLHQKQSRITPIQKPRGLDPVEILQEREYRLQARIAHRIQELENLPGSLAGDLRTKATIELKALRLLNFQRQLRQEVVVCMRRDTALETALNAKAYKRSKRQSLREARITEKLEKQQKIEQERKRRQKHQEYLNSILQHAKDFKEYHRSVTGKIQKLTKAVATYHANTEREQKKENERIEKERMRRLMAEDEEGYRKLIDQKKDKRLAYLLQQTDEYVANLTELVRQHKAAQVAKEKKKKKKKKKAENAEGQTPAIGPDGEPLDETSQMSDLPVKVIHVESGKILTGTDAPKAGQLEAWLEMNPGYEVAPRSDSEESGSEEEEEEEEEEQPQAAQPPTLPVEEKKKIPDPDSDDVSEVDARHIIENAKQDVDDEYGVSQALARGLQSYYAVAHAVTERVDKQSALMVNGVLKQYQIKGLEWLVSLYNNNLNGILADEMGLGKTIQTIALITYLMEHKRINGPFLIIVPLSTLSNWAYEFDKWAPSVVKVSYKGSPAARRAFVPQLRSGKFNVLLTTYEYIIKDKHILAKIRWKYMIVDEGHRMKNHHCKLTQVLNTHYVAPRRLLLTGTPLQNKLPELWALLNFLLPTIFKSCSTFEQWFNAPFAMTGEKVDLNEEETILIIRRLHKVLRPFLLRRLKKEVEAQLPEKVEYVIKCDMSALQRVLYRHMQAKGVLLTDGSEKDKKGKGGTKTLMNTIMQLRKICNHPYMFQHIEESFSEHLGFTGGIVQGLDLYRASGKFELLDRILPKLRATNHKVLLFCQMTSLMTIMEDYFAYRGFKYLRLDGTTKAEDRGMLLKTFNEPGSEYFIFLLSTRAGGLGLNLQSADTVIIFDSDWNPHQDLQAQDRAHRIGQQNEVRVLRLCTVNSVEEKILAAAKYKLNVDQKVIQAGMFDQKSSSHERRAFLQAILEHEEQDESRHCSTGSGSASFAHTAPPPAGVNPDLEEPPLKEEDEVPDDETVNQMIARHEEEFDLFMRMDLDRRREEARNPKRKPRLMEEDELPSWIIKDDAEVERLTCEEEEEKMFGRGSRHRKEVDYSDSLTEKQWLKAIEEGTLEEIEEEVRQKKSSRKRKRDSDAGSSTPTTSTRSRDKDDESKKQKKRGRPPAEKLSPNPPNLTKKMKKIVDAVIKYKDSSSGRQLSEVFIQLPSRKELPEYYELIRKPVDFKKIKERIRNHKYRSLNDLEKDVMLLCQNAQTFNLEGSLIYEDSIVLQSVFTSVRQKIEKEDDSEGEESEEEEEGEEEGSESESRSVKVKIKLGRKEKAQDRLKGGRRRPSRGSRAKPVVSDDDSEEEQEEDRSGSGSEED
T1 sequence (P51531 whole entry): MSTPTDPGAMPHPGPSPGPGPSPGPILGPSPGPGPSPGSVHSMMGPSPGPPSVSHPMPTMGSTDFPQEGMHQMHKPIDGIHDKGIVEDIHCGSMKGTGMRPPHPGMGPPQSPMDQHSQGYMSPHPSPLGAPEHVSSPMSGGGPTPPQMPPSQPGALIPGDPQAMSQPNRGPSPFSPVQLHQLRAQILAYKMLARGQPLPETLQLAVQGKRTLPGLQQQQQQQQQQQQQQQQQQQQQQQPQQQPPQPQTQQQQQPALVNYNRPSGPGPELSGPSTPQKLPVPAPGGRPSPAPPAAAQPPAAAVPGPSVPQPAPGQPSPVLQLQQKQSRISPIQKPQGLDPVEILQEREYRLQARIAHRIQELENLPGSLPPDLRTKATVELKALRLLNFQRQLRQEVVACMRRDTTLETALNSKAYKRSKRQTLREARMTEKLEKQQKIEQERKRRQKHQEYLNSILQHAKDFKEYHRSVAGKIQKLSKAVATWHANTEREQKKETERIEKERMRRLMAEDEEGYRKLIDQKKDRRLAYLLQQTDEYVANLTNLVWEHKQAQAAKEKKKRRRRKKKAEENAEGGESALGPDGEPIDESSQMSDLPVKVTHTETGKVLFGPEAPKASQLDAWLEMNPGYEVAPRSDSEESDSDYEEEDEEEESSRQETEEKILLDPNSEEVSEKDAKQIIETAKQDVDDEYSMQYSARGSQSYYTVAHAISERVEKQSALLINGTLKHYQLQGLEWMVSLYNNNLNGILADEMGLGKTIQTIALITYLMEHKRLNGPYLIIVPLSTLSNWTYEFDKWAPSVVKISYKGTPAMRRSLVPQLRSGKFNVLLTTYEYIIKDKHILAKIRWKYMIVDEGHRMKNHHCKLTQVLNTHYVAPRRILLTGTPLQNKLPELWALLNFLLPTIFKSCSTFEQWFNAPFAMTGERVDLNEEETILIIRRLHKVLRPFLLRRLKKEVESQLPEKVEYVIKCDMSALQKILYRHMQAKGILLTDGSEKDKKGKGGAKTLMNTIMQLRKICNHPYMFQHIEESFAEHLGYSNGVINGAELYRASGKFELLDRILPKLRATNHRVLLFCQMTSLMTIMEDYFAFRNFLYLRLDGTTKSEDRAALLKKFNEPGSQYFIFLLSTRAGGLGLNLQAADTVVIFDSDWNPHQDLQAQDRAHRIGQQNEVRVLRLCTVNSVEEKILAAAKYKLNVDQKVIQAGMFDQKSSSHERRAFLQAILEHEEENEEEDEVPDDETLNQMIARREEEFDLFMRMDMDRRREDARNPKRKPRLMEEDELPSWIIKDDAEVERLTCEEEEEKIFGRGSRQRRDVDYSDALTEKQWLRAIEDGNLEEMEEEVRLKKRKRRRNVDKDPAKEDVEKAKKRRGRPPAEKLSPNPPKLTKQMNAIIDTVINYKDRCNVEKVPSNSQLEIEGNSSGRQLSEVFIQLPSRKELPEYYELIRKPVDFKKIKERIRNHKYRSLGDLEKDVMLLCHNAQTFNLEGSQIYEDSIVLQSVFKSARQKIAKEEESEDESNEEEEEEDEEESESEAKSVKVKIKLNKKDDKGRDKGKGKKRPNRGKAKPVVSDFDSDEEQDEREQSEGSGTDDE

On to `O=C1CCC(N2C(=O)c3ccc(N4CCC(CCN5C[C@@H]6[C@H](C5)[C@H]6CN5CCN6c7cc(-c8ccccc8O)nnc7NC[C@H]6C5)CC4)cc3C2=O)C(=O)N1` (stereo partly drawn) [Example 152, 2-(2,6-dioxopiperidin-3-yl)-5-(4-(2-((1R,5S,6r)-6-(((S)-2-(2-hydroxyphenyl)-5,6,6a,7,9,10-hexahydro-8H-pyrazino[1′,2′:4,5]pyrazino[2,3-c]pyridazin-8-yl)methyl)-3-azabicyclo[3.1.0]hexan-3-yl)ethyl)piperidin-1-yl)isoindoline-1,3-dione], for which the 50% degradation concentration (DC50) in test [1] and in test [2] was less than 10 nM in each case. In addition, the Dmax in test [1] and in test [2] was 50 to 75% throughout.

As for `O=C1CCC(N2C(=O)c3ccc(N4CC5CCC(C4)C5CN4C[C@@H]5[C@H](C4)[C@H]5CN4CCN5c6cc(-c7ccccc7O)nnc6NC[C@H]5C4)cc3C2=O)C(=O)N1` (stereo partly drawn) [Example 53, 2-(2,6-dioxopiperidin-3-yl)-5-(8-(((1R,5S,6r)-6-(((S)-2-(2-hydroxyphenyl)-5,6,6a,7,9,10-hexahydro-8H-pyrazino [1′,2′:4,5]pyrazino[2,3-c]pyridazin-8-yl)methyl)-3-azabicyclo [3.1,0]hexan-3-yl)methyl)-3-azabicyclo[3.2.1]octan-3-yl)isoindoline-1,3-dione], the DC50 in test [1] and in test [2] was less than 10 nM in each case. The maximal degradation (Dmax) was 75 to 85% in test [1] and 50 to 75% in test [2].

Take `CN(C(=O)N1CCN2c3cc(-c4ccccc4O)nnc3NC[C@H]2C1)C1CCN(CC2CCN(c3ccc4c(c3)CN(C3CCC(=O)NC3=O)C4=O)CC2)CC1` (stereo partly drawn) [Example 139, (6aS)-N-(1-((1-(2-(2,6-dioxopiperidin-3-yl)-1-oxoisoindolin-5-yl)piperidin-4-yl)methyl)piperidin-4-yl)-2-(2-hydroxyphenyl)-N-methyl-5,6,6a,7,9,10-hexahydro-8H-pyrazino[1′,2′:4,5]pyrazino[2,3-c]pyridazine-8-carboxamide]: the half-maximal degradation concentration (DC50) in test [1] and in test [2] was less than 10 nM in each case. Further, the Dmax in test [1] and in test [2] was more than 85% each time.

Regarding `C[C@@H]1C[C@H](CN2C[C@@H]3[C@H](C2)[C@H]3CN2CCN3c4cc(-c5ccccc5O)nnc4NC[C@H]3C2)CCN1c1cc2c(cc1F)C(=O)N(C1CCC(=O)NC1=O)C2=O` (some centres unmarked) [Example 176], in test [1], the DC50 is less than 10 nM and the Dmax is more than 85%. Moreover, in test [2], the half-maximal degradation concentration (DC50) lay within 10 to 100 nM and the Dmax lay in the range of 50 to 75%.

Regarding `O=C1CCC(N2C(=O)c3ccc(N4CCC(CN5CCCC(CN6CCN7c8cc(-c9ccccc9O)nnc8NC[C@H]7C6)C5)CC4)cc3C2=O)C(=O)N1` (stereo partly drawn) [Example 35, 2-(2,6-dioxopiperidin-3-yl)-5-(4-((3-(((S)-2-(2-hydroxyphenyl)-5,6,6a,7,9,10-hexahydro-8H-pyrazino[1′,2′:4,5]pyrazino[2,3-c]pyridazin-8-yl)methyl)piperidin-1-yl)methyl)piperidin-1-yl)isoindoline-1,3-dione], in test [1], the half-maximal degradation concentration (DC50) is less than 10 nM and the Dmax fell in the range of 75 to 85%. In addition, in test [2], the DC50 is less than 10 nM and the greatest degradation seen (Dmax) lay within 50 to 75%.

In the case of `O=C1CCC(N2Cc3ccc(N4CCC(CN5CCC(F)(CN6CCN7c8cc(-c9ccccc9O)nnc8NC[C@H]7C6)CC5)CC4)cc3C2=O)C(=O)N1` (stereo partly drawn) [Example 233, 3-(6-(4-((4-fluoro-4-(((S)-2-(2-hydroxyphenyl)-5,6,6a,7,9,10-hexahydro-8H-pyrazino[1′,2′:4,5]pyrazino[2,3-c]pyridazin-8-yl)methyl)piperidin-1-yl)methyl)piperidin-1-yl)-1-oxoisoindolin-2-yl)piperidine-2,6-dione], the DC50 in test [1] and in test [2] was less than 10 nM throughout. The Dmax in test [1] and in test [2] was more than 85% throughout.

With `O=C1CCC(N2C(=O)c3ccc(N4CCC(CN5CCC(CN6CCN7c8cc(-c9ccccc9O)nnc8NC[C@H]7C6)CC5)C(F)(F)C4)cc3C2=O)C(=O)N1` (stereo partly drawn) [Example 181, 5-[3,3-difluoro-4-[[4-[[(10S)-4-(2-hydroxyphenyl)-1,5,6,8,12-pentazatricyclo[8.4.0.02,7]tetradeca-2,4,6-trien-12-yl]methyl]piperidin-1-yl]mehtyl]piperidin-1-yl]-2-(2,6-dioxopiperidin-3-yl) isoindoline-1,3-dione], in test [1], the DC50 is less than 10 nM and the Dmax is more than 85%. In test [2], the half-maximal degradation concentration (DC50) was less than 10 nM and the maximal degradation (Dmax) was more than 85%.

For `CC1CN(CC2CCN(c3ccc4c(c3)C(=O)N(C3CCC(=O)NC3=O)C4=O)CC2)CC(C)N1C(=O)N1CCN2c3cc(-c4ccccc4O)nnc3NC[C@H]2C1` (stereo partly drawn) [Example 273, 2-(2,6-dioxopiperidin-3-yl)-5-(4-((4-((S)-2-(2-hydroxyphenyl)-6,6a,7,8,9,10-hexahydro-5H-pyrazino[1′,2′:4,5]pyrazino[2,3-c]pyridazine-8-carbonyl)-3,5-dimethylpiperazin-1-yl)methyl)piperidin-1-yl)isoindoline-1,3-dione], in test [1], the DC50 was less than 10 nM and the Dmax is more than 85%. In addition, in test [2], the DC50 is less than 10 nM and the maximal degradation (Dmax) was in the range of 75 to 85%.

As for `O=C1CCC(N2C(=O)c3ccc(N4CCC(N5C[C@@H]6[C@@H](CN7CCN8c9cc(-c%10ccccc%10O)nnc9NC[C@H]8C7)[C@@H]6C5)CC4)cc3C2=O)C(=O)N1` (stereo partly drawn) [Example 90, 2-(2,6-dioxopiperidin-3-yl)-5-(4-((1R,5S,6s)-6-(((S)-2-(2-hydroxyphenyl)-5,6,6a,7,9,10-hexahydro-8H-pyrazino[1′,2′:4,5]pyrazino[2,3-c]pyridazin-8-yl)methyl)-3-azabicyclo[3.1.0]hexan-3-yl)piperidin-1-yl)isoindoline-1,3-dione], in test [1], the half-maximal degradation concentration (DC50) is less than 10 nM and the Dmax was in the range of 50 to 75%. In test [2], the DC50 lay within 10 to 100 nM and the Dmax lay within 50 to 75%.

Regarding `O=C1CCC(N2C(=O)c3ccc(N4CCO[C@@H](CN5C[C@@H]6[C@H](C5)[C@H]6CN5CCN6c7cc(-c8ccccc8O)nnc7NC[C@H]6C5)C4)cc3C2=O)C(=O)N1` (stereo partly drawn) [Example 51, 2-(2,6-dioxopiperidin-3-yl)-5-((S)-2-(((1R,5S,6R)-6-(((S)-2-(2-hydroxyphenyl)-5,6,6a,7,9,10-hexahydro-8H-pyrazino[1′,2′:4,5]pyrazino[2,3-c]pyridazin-8-yl)methyl)-3-azabicyclo[3.1.0]hexan-3-yl)methyl)morpholino)isoindoline-1,3-dione], in test [1], the 50% degradation concentration (DC50) is less than 10 nM and the Dmax is more than 85%. Further, in test [2], the DC50 was less than 10 nM and the maximal degradation (Dmax) lay in the range of 50 to 75%.

In the case of `O=C1CCC(N2C(=O)c3cc(F)c(N4CCC(CN5C[C@@H]6[C@H](C5)[C@H]6CN5CCN6c7cc(-c8ccccc8O)nnc7NC[C@H]6C5)CC4)cc3C2=O)C(=O)N1` (stereo partly drawn) [Example 173, 2-(2,6-dioxopiperidin-3-yl)-5-fluoro-6-[4-[[(1S,5R)-6-[[(10S)-4-(2-hydroxyphenyl)-1,5,6,8,12-pentazatricyclo[8.4.0.02,7]tetradeca-2,4,6-trien-12-yl]methyl]-3-azabicyclo[3.1.0]hexan-3-yl]methyl]piperidin-1-yl]isoindole-1,3-dione], in test [1], the DC50 is less than 10 nM and the Dmax is 75 to 85%. In test [2], the DC50 was 10 to 100 nM and the Dmax was 50 to 75%.

Take `O=C1CCC(N2C(=O)c3ccc(N4CCC(CN5CC6(CC(CN7CCN8c9cc(-c%10ccccc%10O)nnc9NC[C@H]8C7)C6)C5)CC4)cc3C2=O)C(=O)N1` (stereo partly drawn) [Example 41, 2-(2,6-dioxopiperidin-3-yl)-5-(4-((6-(((S)-2-(2-hydroxyphenyl)-5,6,6a,7,9,10-hexahydro-8H-pyrazino[1′,2′:4,5]pyrazino[2,3-c]pyridazin-8-yl)methyl)-2-azaspiro[3.3]heptan-2-yl)methyl)piperidin-1-yl)isoindoline-1,3-dione]: in test [1], the 50% degradation concentration (DC50) was less than 10 nM and the Dmax is more than 85%. Further, in test [2], the half-maximal degradation concentration (DC50) is less than 10 nM and the greatest degradation seen (Dmax) was more than 85%.

With `O=C1CCC(N2Cc3ccc(N4CC[C@H](CN5CCC(C(=O)N6CCN7c8cc(-c9ccccc9O)nnc8NC[C@H]7C6)CC5)[C@@H](F)C4)cc3C2=O)C(=O)N1` (stereo partly drawn) [Example 261, 3-(6-((3R,4R)-3-fluoro-4-((4-((S)-2-(2-hydroxyphenyl)-6,6a,7,8,9,10-hexahydro-5H-pyrazino[1′,2′:4,5]pyrazino[2,3-c]pyridazine-8-carbonyl)piperidin-1-yl)methyl)piperidin-1-yl)-1-oxoisoindolin-2-yl)piperidine-2,6-dione], the DC50 in test [1] is less than 10 nM; in test [2], 10 to 100 nM. For the same compound, the Dmax in test [1] is more than 85%; in test [2], 75 to 85%.

`O=C1CCC(N2C(=O)c3ccc(Oc4ccc(N5CCC(N6CCN7c8cc(-c9ccccc9O)nnc8NC[C@H]7C6)CC5)cc4)cc3C2=O)C(=O)N1` (stereo partly drawn) [Example 241, 2-(2,6-dioxopiperidin-3-yl)-5-(4-(4-((S)-2-(2-hydroxyphenyl)-5,6,6a,7,9,10-hexahydro-8H-pyrazino[1′,2′:4,5]pyrazino[2,3-c]pyridazin-8-yl)piperidin-1-yl)phenoxy)isoindoline-1,3-dione]: the DC50 is less than 10 nM in test [1] and 10 to 100 nM in test [2]. The results for the maximal degradation (Dmax) in test [1] and in test [2] were 50 to 75% and 75 to 85%, respectively.

A word on the DC50: it is the concentration giving 50% degradation. By Dmax is commonly meant the greatest extent of degradation seen.

The values above are taken from patent US12448389B2, “BRM targeting compounds and associated methods of use” (Prelude Therapeutics Incorporated, priority 2020, dated 2025).
